Assay results: PubChem BioAssay AID1259407 (Chemical Carcinogenesis Research Information System (CCRIS), 2018)
Calls of active or inactive are those of the source. The rule behind the calls is not given here.

System: CCRIS mutagenicity, Ames/micronucleus/aberration tests
Experiment: CCRIS mutagenicity studies
[1] = Test System: AMES SALMONELLA TYPHIMURIUM, Strain/Indicator: TA98, Metabolic Activation: NONE, Method: STANDARD PLATE
[2] = Test System: AMES SALMONELLA TYPHIMURIUM, Strain/Indicator: TA98, Metabolic Activation: RAT, LIVER, S-9, AROCLOR 1254, Method: STANDARD PLATE
[3] = Test System: AMES SALMONELLA TYPHIMURIUM, Strain/Indicator: TA100, Metabolic Activation: NONE, Method: STANDARD PLATE
[4] = Test System: AMES SALMONELLA TYPHIMURIUM, Strain/Indicator: TA1535, Metabolic Activation: NONE, Method: STANDARD PLATE

## CC(C)=CC1C(C(=O)OCc2coc(Cc3ccccc3)c2)C1(C)C (configuration not stated)
Test System: AMES SALMONELLA TYPHIMURIUM, Strain/Indicator: TA97, Metabolic Activation: NONE, Method: STANDARD PLATE
  mutagenic call: inactive; negative
Test System: AMES SALMONELLA TYPHIMURIUM, Strain/Indicator: TA97, Metabolic Activation: RAT, LIVER, S-9, PHENOBARBITONE, Method: STANDARD PLATE
  mutagenic call: inactive; negative
Test System: AMES SALMONELLA TYPHIMURIUM, Strain/Indicator: TA98
  mutagenic call: active; positive
Test System: AMES SALMONELLA TYPHIMURIUM, Strain/Indicator: TA98, Metabolic Activation: NONE
  mutagenic call: inactive; negative
[1]
  mutagenic call: inactive; negative
[2]
  mutagenic call: inactive; negative
Test System: AMES SALMONELLA TYPHIMURIUM, Strain/Indicator: TA98, Metabolic Activation: RAT, LIVER, S-9, PHENOBARBITONE, Method: STANDARD PLATE
  mutagenic call: inactive; negative
Test System: AMES SALMONELLA TYPHIMURIUM, Strain/Indicator: TA100
  mutagenic call: active; positive
Test System: AMES SALMONELLA TYPHIMURIUM, Strain/Indicator: TA100, Metabolic Activation: NONE
  mutagenic call: inactive; negative
[3]
  mutagenic call: inactive; negative
Test System: AMES SALMONELLA TYPHIMURIUM, Strain/Indicator: TA100, Metabolic Activation: RAT, LIVER, S-9, AROCLOR 1254, Method: STANDARD PLATE
  mutagenic call: inactive; negative
Test System: AMES SALMONELLA TYPHIMURIUM, Strain/Indicator: TA100, Metabolic Activation: RAT, LIVER, S-9, PHENOBARBITONE, Method: STANDARD PLATE
  mutagenic call: inactive; negative
Test System: AMES SALMONELLA TYPHIMURIUM, Strain/Indicator: TA104, Metabolic Activation: NONE, Method: STANDARD PLATE
  mutagenic call: inactive; negative
Test System: AMES SALMONELLA TYPHIMURIUM, Strain/Indicator: TA104, Metabolic Activation: RAT, LIVER, S-9, PHENOBARBITONE, Method: STANDARD PLATE
  mutagenic call: inactive; negative
[4]
  mutagenic call: inactive; negative
Test System: AMES SALMONELLA TYPHIMURIUM, Strain/Indicator: TA1535, Metabolic Activation: RAT, LIVER, S-9, AROCLOR 1254, Method: STANDARD PLATE
  mutagenic call: inactive; negative
Test System: AMES SALMONELLA TYPHIMURIUM, Strain/Indicator: TA1537, Metabolic Activation: NONE, Method: STANDARD PLATE
  mutagenic call: inactive; negative
Test System: AMES SALMONELLA TYPHIMURIUM, Strain/Indicator: TA1537, Metabolic Activation: RAT, LIVER, S-9, AROCLOR 1254, Method: STANDARD PLATE
  mutagenic call: inactive; negative
Test System: CHINESE HAMSTER V-79, Strain/Indicator: V-79/6-THIOGUANINE, Metabolic Activation: NONE, Method: STANDARD PLATE
  mutagenic call: inactive; negative
Test System: CHINESE HAMSTER V-79, Strain/Indicator: V-79/6-THIOGUANINE, Metabolic Activation: RAT HEPATOCYTES, Method: STANDARD PLATE
  mutagenic call: inactive; negative
Test System: CHINESE HAMSTER V-79, Strain/Indicator: V-79/OUABAIN, Metabolic Activation: NONE, Method: STANDARD PLATE
  mutagenic call: inactive; negative
Test System: CHINESE HAMSTER V-79, Strain/Indicator: V-79/OUABAIN, Metabolic Activation: RAT HEPATOCYTES, Method: STANDARD PLATE
  mutagenic call: inactive; negative
Test System: E. COLI, Strain/Indicator: WP2, Metabolic Activation: NONE, Method: STANDARD PLATE
  mutagenic call: inactive; negative
Test System: E. COLI, Strain/Indicator: WP2, Metabolic Activation: RAT, LIVER, S-9, AROCLOR 1254, Method: STANDARD PLATE
  mutagenic call: inactive; negative

## O=[N+]([O-])c1ccc(NO)cc1
Test System: AMES SALMONELLA TYPHIMURIUM, Strain/Indicator: TA98(NR), Metabolic Activation: NONE, Method: STANDARD PLATE
  mutagenic call: active; positive
Test System: AMES SALMONELLA TYPHIMURIUM, Strain/Indicator: TA98(NR), Metabolic Activation: RAT, LIVER, S-9, AROCLOR 1254, Method: STANDARD PLATE
  mutagenic call: inactive; negative
[1]
  mutagenic call: active; positive
[2]
  mutagenic call: active; positive
[3]
  mutagenic call: active; positive
[4]
  mutagenic call: active; positive
Test System: AMES SALMONELLA TYPHIMURIUM, Strain/Indicator: TA1538(NR), Metabolic Activation: NONE, Method: STANDARD PLATE
  mutagenic call: active; positive
Test System: AMES SALMONELLA TYPHIMURIUM, Strain/Indicator: TA1538(NR), Metabolic Activation: RAT, LIVER, S-9, AROCLOR 1254, Method: STANDARD PLATE
  mutagenic call: active; positive
Test System: AMES SALMONELLA TYPHIMURIUM, Strain/Indicator: TA1538, Metabolic Activation: NONE, Method: STANDARD PLATE
  mutagenic call: active; positive
Test System: AMES SALMONELLA TYPHIMURIUM, Strain/Indicator: TA1538, Metabolic Activation: RAT, LIVER, S-9, AROCLOR 1254, Method: STANDARD PLATE
  mutagenic call: active; positive
Test System: E. COLI, Strain/Indicator: WP2 UVRA(P), Metabolic Activation: NONE, Method: STANDARD PLATE
  mutagenic call: active; positive
Test System: E. COLI, Strain/Indicator: WP2 UVRA, Metabolic Activation: NONE, Method: FLUCTUATION TEST
  mutagenic call: active; positive
Test System: E. COLI, Strain/Indicator: WP2 UVRA, Metabolic Activation: NONE, Method: STANDARD PLATE
  mutagenic call: inactive; negative
